From patent publication US20090023773A1, “COMPOSITIONS AND METHODS FOR MODULATING GATED ION CHANNELS” (PainCeptor Pharma Corporation, priority 2007, published 2009)

biological target: T1, recombinant homomeric hASIC1a channels (Homo sapiens, UniProt P78348); assay: Two-electrode voltage clamp in Xenopus laevis oocytes expressing gated ion channels (Example 4); assay type: cell-based; conditions: Table 1; generated using oocytes as in Example 4
T1 construct: expressed in transfected cells; host or cells: Xenopus laevis oocytes (nuclear microinjection of expression vector such as pcDNA3)
T1 sequence (P78348 1-528): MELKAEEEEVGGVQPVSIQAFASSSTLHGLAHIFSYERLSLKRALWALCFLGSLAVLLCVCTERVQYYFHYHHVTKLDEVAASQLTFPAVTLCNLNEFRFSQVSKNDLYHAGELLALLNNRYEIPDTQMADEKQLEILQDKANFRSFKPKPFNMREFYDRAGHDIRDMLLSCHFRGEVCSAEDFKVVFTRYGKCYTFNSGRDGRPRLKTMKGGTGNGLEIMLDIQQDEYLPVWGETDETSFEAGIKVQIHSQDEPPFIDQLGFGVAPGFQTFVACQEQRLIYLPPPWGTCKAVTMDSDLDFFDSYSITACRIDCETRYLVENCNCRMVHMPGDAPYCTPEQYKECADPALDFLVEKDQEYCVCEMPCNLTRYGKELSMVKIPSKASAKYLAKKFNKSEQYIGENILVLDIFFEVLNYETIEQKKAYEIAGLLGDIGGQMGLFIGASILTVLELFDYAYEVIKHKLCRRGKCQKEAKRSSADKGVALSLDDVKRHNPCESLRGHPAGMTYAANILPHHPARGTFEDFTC

Compound | IC50 [µM]
Cc1cc(OC2CCN(Cc3cccnc3)CC2)c2cccc(F)c2n1 [Compound 3] | 0.1 to 10
C=CCOC(=O)N1CCC(Oc2nc(C)nc3ccccc23)CC1 [Compound 10] | 0.1 to 10
Cc1cc(OC2CCN(C(C)c3ccccc3C(=O)O)CC2)c2cccc(F)c2n1 (stereo not shown) [Compound 15] | 0.1 to 10
Cc1cc(OC2CCN(Cc3ccccc3)CC2)c2cccc(O)c2n1 [Compound 21] | > 30
O=C(O)c1cc(OC2CCN(Cc3ccccc3)CC2)c2ccccc2n1 [Compound 12] | 20.1 to 30
Cc1cc(OC2CCN(Cc3cccc(O)c3)CC2)c2ccccc2n1 [Compound 22] | 0.1 to 10
Cc1nc(OC2CCN(Cc3ccccc3F)CC2)c2ccccc2n1 [Compound 8] | > 30
Cc1cc(OC2CCN(C(C)c3ccccc3C#N)CC2)c2cccc(F)c2n1 (stereo not shown) [Compound 18] | 20.1 to 30
Cc1nc(OC2CCN(Cc3ccccc3C#N)CC2)c2ccccc2n1 [Compound 9] | > 30
Cc1cc(O[C@H]2CCCN(Cc3ccccc3)C2)c2ccccc2n1 [Compound 20] | > 30
Cc1cc(OC2CCCN(Cc3ccccc3)C2)c2ccccc2n1 (stereo not shown) [Compound 19] | > 30
Cc1cc(OC2CCN(Cc3ccccc3C#N)CC2)c2cccc(F)c2n1 [Compound 17] | 0.1 to 10
Cc1cc(OC2CCN(Cc3c(F)cccc3C(=O)O)CC2)c2cccc(F)c2n1 [Compound 23] | > 30
Cc1cc(OC2CCN(Cc3ccccc3F)C(C)C2)c2ccccc2n1 (stereo not shown) [Compound 5] | 0.1 to 10
Cc1cc(OC2CCN(Cc3cccnc3C(=O)O)CC2)c2cccc(F)c2n1 [Compound 25] | > 30
Cc1cc(OC2CCN(Cc3ccc(O)cc3)CC2)c2cccc(F)c2n1 [Compound 26, 4-((4-(8-fluoro-2-methylquinolin-4-yloxy)piperidin-1-yl)methyl)phenol] | 0.1 to 10
Cc1nc(OC2CCN(Cc3ccccc3)CC2)c2ccccc2n1 [Compound 7] | 10.1 to 20
Cc1cc(OC2CCN(Cc3ccccc3F)CC2)c2cccc(F)c2n1 [Compound 2] | 0.1 to 10
COc1cccc2c(OC3CCN(Cc4ccccc4)CC3)cc(C)nc12 [Compound 11] | 0.1 to 10
COc1cccc(CN2CCC(Oc3cc(C)nc4ccccc34)CC2)c1 [Compound 14] | 0.1 to 10

same assay, conditions: Table 2; generated using oocytes as in Example 4

Compound | IC50 [µM]
Cc1cc(OC2CCN(Cc3ccccc3C(=O)O)CC2)c2cc(F)ccc2n1 [Compound 31] | 10.1 to 20
COc1ccc(F)c2c(OC3CCN(Cc4ccccc4-c4nnn[nH]4)CC3)cc(C)nc12 [Compound 95] | 0.1 to 10
COc1cc(F)cc2c(OC3CCN(Cc4ccccc4C(=O)O)CC3)cc(C)nc12 [Compound 36, 2-[4-(6-Fluoro-8-methoxy-2-methyl-quinolin-4-yloxy)-piperidin-1-ylmethyl]-benzoic acid] | 0.1 to 10
Cc1cc(OC2CCN(Cc3ccc(C(=O)O)cc3)CC2)c2cc(O)ccc2n1 [Compound 96] | > 30
COc1cc(F)cc2c(OC3CCN(Cc4ccccc4C#N)CC3)cc(C)nc12 [Compound 34] | > 30
Cc1cc(OC2CCN(Cc3ccccc3)CC2)c2ccc(F)cc2n1 [Compound 80] | > 30
Cc1cc(OC2CCN(Cc3ccccc3-c3nnn[nH]3)CC2)c2cc(Br)ccc2n1 [Compound 59] | > 30
COc1cc(F)cc2c(OC3CCN(Cc4ccccc4)CC3)cc(C)nc12 [Compound 32] | 0.1 to 10
Cc1cc(OC2CCN(Cc3c(F)cccc3C#N)CC2)c2cc(C#N)ccc2n1 [Compound 45] | > 30
Cc1cc(OC2CCN(Cc3ccccc3)CC2)c2cc(F)ccc2n1 [Compound 29] | 0.1 to 10
Cc1cc(OC2CCN(C(C)c3ccccc3)CC2)c2ccccc2n1 (stereo not shown) [Compound 38] | 0.1 to 10
COc1ccc(CN2CCC(Oc3cc(C)nc4c(F)cccc34)CC2)c(F)c1 [Compound 47] | 0.1 to 10
Cc1cc(OC2CCN(Cc3ccccc3)CC2)c2cc(-c3cccc(F)c3)ccc2n1 [Compound 55] | > 30
Cc1cc(OC2CCCN(Cc3ccccc3)CC2)c2cccc(F)c2n1 (stereo not shown) [Compound 75] | > 30
COc1cccc(CN2CCC(Oc3cc(C)nc4c(F)cccc34)CC2)c1 [Compound 70] | 0.1 to 10
Cc1cc(OC2CCN(Cc3ccccc3C#N)CC2)c2cc(F)ccc2n1 [Compound 30] | 10.1 to 20
Cc1cc(OC2CCN(Cc3cccc(OCc4ccccc4)c3)CC2)c2ccccc2n1 [Compound 85] | > 30
COc1ccc(CN2CCC(Oc3cc(C)nc4c(F)cccc34)CC2)cc1 [Compound 41] | 0.1 to 10
Cc1cc(OC2CCN(Cc3ccccc3C(=O)Nc3ccc(C(=O)O)cc3)CC2)c2cccc(F)c2n1 [Compound 54] | 0.1 to 10
Cc1cc(OC2CCN(Cc3cccc(F)c3)CC2)c2ccccc2n1 [Compound 27] | 0.1 to 10

Compound | IC50 [µM]
COC(=O)c1ccc(CN2CCC(Oc3cc(C)nc4ccccc34)CC2)cc1 [Compound 64] | 20.1 to 30
COc1cc(OC)c(CN2CCC(Oc3cc(C)nc4c(F)cccc34)CC2)c(C(=O)O)c1 [Compound 81] | > 30
c1ccc(CN2CCC(Oc3nccc4ccccc34)CC2)cc1 [Compound 83] | > 30
Cc1cc(OC2CCN(Cc3ccccc3)CC2)c2cc(-c3nnn[nH]3)ccc2n1 [Compound 58] | > 30
COc1ccc2cc(CN3CCC(Oc4cc(C)nc5c(F)cccc45)CC3)ccc2c1 [Compound 87] | 10.1 to 20
Cc1cc(OC2CCN(Cc3ccccc3C(=O)O)C3CCCCC23)c2cccc(F)c2n1 (stereo not shown) [Compound 82] | > 30
Cc1cc(OC2CCN(Cc3ccccc3-c3nnn[nH]3)CC2)c2cccc(F)c2n1 [Compound 50, 4-[1-(2-(1H-tetrazol-5-yl-)benzyl)piperidin-4-yloxy]-8-fluoro2-methylquinoline] | 0.1 to 10
Cc1cc(OC2CCN(Cc3ccccc3C#N)CC2)c2cc(C#N)ccc2n1 [Compound 60] | > 30
Cc1cc(OC2CCN(Cc3ccccc3)C3CCCCC23)c2cccc(F)c2n1 (stereo not shown) [Compound 74] | 0.1 to 10
Cc1cc(OC2CCN(Cc3cccnc3CO)CC2)c2cccc(F)c2n1 [Compound 76] | > 30
Cc1cc(OC2CCN(Cc3ccccc3C#N)CC2)c2ccccc2n1 [Compound 63] | > 30
COc1cccc2c(OC3CCN(Cc4ccccc4-c4nnn[nH]4)CC3)cc(C)nc12 [Compound 93] | 20.1 to 30
Cc1cc(OC2CCN(Cc3ccc(O)c(O)c3)CC2)c2ccccc2n1 [Compound 88] | 0.1 to 10
c1ccc(CN2CCC(Oc3c4ccccc4nc4ccccc34)CC2)cc1 [Compound 89] | > 30
COC(=O)c1ccc(NC(=O)c2ccccc2CN2CCC(Oc3cc(C)nc4c(F)cccc34)CC2)cc1 [Compound 51] | 10.1 to 20
Cc1cc(OC2CCN(Cc3c(F)cccc3C(=O)O)CC2)c2cc(Br)ccc2n1 [Compound 43] | > 30
COc1ccc(CN2CCC(Oc3cc(C)nc4c(F)cccc34)CC2)cn1 [Compound 72] | > 30
Cc1cc(OC2CC(C)N(Cc3ccccc3F)C(C)C2)c2ccccc2n1 (stereo not shown) [Compound 67] | > 30
COc1ccc(CN2CCC(Oc3cc(C)nc4ccc(Br)cc34)CC2)cc1 [Compound 48] | > 30
Cc1cc(OC2CCN(Cc3ccc4ccccc4c3)CC2)c2cccc(F)c2n1 [Compound 84] | > 30

Compound | IC50 [µM]
Cc1cc(OC2CCN(Cc3ccccc3C(=O)NCCCC(=O)OCc3ccccc3)CC2)c2cccc(F)c2n1 [Compound 61] | 0.1 to 10
Cc1cc(OC2CCN(Cc3cccc(C(=O)O)c3)CC2)c2cc(O)ccc2n1 [Compound 92] | > 30
Cc1cc(OC2CCN(Cc3ccccc3C#N)CC2)c2cc(OC3CCCCO3)ccc2n1 (stereo not shown) [Compound 52] | > 30
Cc1cc(NC2CCN(Cc3ccccc3)CC2)c2ccccc2n1 [Compound 40] | > 30
Cc1cc(OC2CCN(Cc3ccc(O)c(C(=O)O)c3)CC2)c2cccc(F)c2n1 [Compound 90] | ≥ 30
Cc1cc(OC2CCN(Cc3ccncc3F)CC2)c2cccc(F)c2n1 [Compound 73] | 20.1 to 30
Cc1cc(OC2CCN(Cc3ccccc3C#N)CC2)c2cc(Br)ccc2n1 [Compound 57] | > 30
Cc1cc(OC2CCN(Cc3c(F)cccc3C#N)CC2)c2cccc(F)c2n1 [Compound 42] | 0.1 to 10
COc1cccc2c(OC3CCN(Cc4ccccc4C#N)CC3)cc(C)nc12 [Compound 91] | > 30
COc1ncccc1CN1CCC(Oc2cc(C)nc3c(F)cccc23)CC1 [Compound 71] | 0.1 to 10
Cc1cc(OC2CCN(Cc3c(F)cccc3F)CC2)c2cccc(F)c2n1 [Compound 77] | 10.1 to 20
Cc1cc(OC2CCN(Cc3ccc(F)c(C#N)c3)CC2)c2ccccc2n1 [Compound 65] | > 30
c1ccc(CN2CCC(Oc3ccnc4ccccc34)CC2)cc1 [Compound 68] | 0.1 to 10
Cc1cc(OC2CCN(Cc3ccc(O)cc3F)CC2)c2cccc(F)c2n1 [Compound 49] | 0.1 to 10
Cc1cc(OC2CCN(Cc3ccc(C(=O)O)cc3)CC2)c2ccccc2n1 [Compound 66] | > 30
Cc1cc(OC2CCN(Cc3ccc4c(c3)OCO4)CC2)c2ccccc2n1 [Compound 86] | 10.1 to 20
COc1ccc(CC2CCC(Oc3cc(C)nc4c(F)cccc34)CC2)cc1 (stereo not shown) [Compound 69] | > 30
Cc1cc(OC2CCN(Cc3ccccc3)CC2)c2cc(C#N)ccc2n1 [Compound 46] | 20.1 to 30
COc1ccc(F)c2c(OC3CCN(Cc4ccccc4)CC3)cc(C)nc12 [Compound 33] | > 30
